Assay results reported in US20110028566A1, “COMPOSITIONS AND PRODUCTS CONTAINING CYCLOALIPHATIC DIOL ANTIMICROBIAL AGENTS AND METHODS OF USING THE COMPOSITIONS AND PRODUCTS” (EASTMAN CHEMICAL COMPANY, priority 2009, published 2011).

Tests used:
Experiment in all cases: Microbial challenge testing in BPW
Assay type in all cases: cell-based
Escherichia coli = tested on: Escherichia coli
Procedure: (§1) The microorganisms used in challenge tests are given in Table 3, designated as either ATCC (American Type Culture Collection) or wild type. These wild type organisms were problematic organisms previously isolated from chemical products. In the description for each organism, the bacteria are indicated as either GN (Gram negative) or GP (Gram positive).
(§2) All of the microorganisms were grown in Tryptose Soy Broth (TSB), DIFCO™ available from Becton, Dickinson and Company, containing 1% dextrose. Aspergillus niger and Candida albicans were incubated at 22° C.±2° C. for at least 96 hours. All bacteria were incubated at 35° C.±2° C. in a humidified incubator for at least 96 hours.
(§3) The following procedure was followed to determine the amount of each challenge material (inoculum broth) required to produce a 10^8 cfu/mL challenge, which is equivalent to a final test-sample microbial concentration of 10^5 to 10^6 cfu (colony-forming units)/mL.
(§4) Using a sterile serological pipette, 1 mL of the growth from each TSB culture was transferred into tubes containing 9 mL phosphate buffer (pH 7.2) and mixed thoroughly. This process was repeated to make serial 1:10 dilutions. Then 0.1 mL of each sample and dilution was inoculated onto agar plates to produce the equivalent of a further 1:10 dilution. C. albicans and A. niger were inoculated onto SDA and bacteria were inoculated onto Plate Count Agar (PCA), DIFCO™ available from Becton, Dickinson and Company. The 0.1 mL aliquots were evenly distributed on the plates using the spread-plate technique. The spread-plate technique is performed by spreading the aliquot over the entire plate surface using a sterile spreading rod while rotating the plate with a rotary auto-plater. After the inoculum was absorbed completely, each plate was inverted and incubated (fungi at 22° C.±2° C. and bacteria at 35° C.±2° C.).
(§5) After incubation for at least 48 hours, colonies that had developed on the agar plates were counted and recorded with the corresponding dilution. If counting had to be delayed temporarily, plates were refrigerated, preferably no more than 24 hours, until they could be counted. The number of cfu/mL was determined by multiplying the count by the dilution factor for that particular plate.
(§6) Turbidity in Nepholemetric Turbidity Units (NTU) was measured for each serial dilution using the HF-Micro 100 Model Turbidimeter. For each microorganism, the plate counts were compared to the turbidity readings.
(§7) Control substrates (“broth alone”) were prepared for each microorganism separately in triplicate by adding 13.5 mL of BPW (pH 7.0) containing 1% (w/v) dextrose to each 20-mL glass tube; then adding 1.5 mL challenge material to produce a final concentration at time zero of 10^5 to 10^6 cfu/mL and a total volume of 15 mL.
(§8) Test sample substrates were prepared containing each test material (1,4-CHDM, etc) or combination of test materials at the concentrations shown in Tables 5 and 6. Sample substrates were prepared in triplicate, except those substrates containing PE or CG which were prepared in duplicate. Substrates were prepared by adding BPW containing 1% (w/v) dextrose to each 20-mL glass tube, then adding the test material in the amount appropriate to achieve the desired weight/volume percent (g/100 mL) and to obtain a total volume of BPW with dextrose and test material of 13.5 mL. Then 1.5 mL challenge material was added to produce a final concentration at time zero of 10^5 to 10^6 cfu/mL of the respective organism and a total test sample substrate volume of 15 mL.
(§9) After mixing, all challenged substrates were incubated at 35° C.±2° C. for 14 days and then at ambient room temperature.

Bacillus subtilis = tested on: Bacillus subtilis
Procedure: as §1, §2, §3, §4, §5, §6, §7, §8, §9

Aeromonas sp. = tested on: Aeromonas sp.
Procedure: as §1, §2, §3, §4, §5, §6, §7, §8, §9

[1] = tested on: Staphylococcus epidermidis
Procedure: as §1, §2, §3, §4, §5, §6, §7, §8, §9

Burkholderia cepacia = tested on: Burkholderia cepacia
Procedure: as §1, §2, §3, §4, §5, §6, §7, §8, §9

CC1(C)C(O)C(C)(C)C1O (stereo not shown) [TMCD, 2,2,4,4-tetramethyl-1,3-cyclobutanediol]
Grade code E. coli (Escherichia coli; 0.5%, 3 days incubation): 5 (More than 10,000 colonies estimated (thus >100,000 cfu/mL)) | Grade code E. coli (Escherichia coli; 0.5%, 14 days incubation): 4 (1001 to 10,000 colonies (thus 10,000 cfu/mL to 100,000 cfu/mL)) | Grade code E. coli (Escherichia coli; 0.5%, 30 days incubation): 4 (1001 to 10,000 colonies (thus 10,000 cfu/mL to 100,000 cfu/mL)) | Grade code E. coli (Escherichia coli; 1.25%, 3 days incubation): 4 (1001 to 10,000 colonies (thus 10,000 cfu/mL to 100,000 cfu/mL)) | Grade code E. coli (Escherichia coli; 1.25%, 14 days incubation): 4 (1001 to 10,000 colonies (thus 10,000 cfu/mL to 100,000 cfu/mL)) | Grade code E. coli (Escherichia coli; 1.25%, 30 days incubation): 4 (1001 to 10,000 colonies (thus 10,000 cfu/mL to 100,000 cfu/mL)) | Grade code E. coli (Escherichia coli; 2.5%, 3 days incubation): 4 (1001 to 10,000 colonies (thus 10,000 cfu/mL to 100,000 cfu/mL)) | Grade code E. coli (Escherichia coli; 2.5%, 14 days incubation): 4 (1001 to 10,000 colonies (thus 10,000 cfu/mL to 100,000 cfu/mL)) | Grade code E. coli (Escherichia coli; 2.5%, 30 days incubation): 4 (1001 to 10,000 colonies (thus 10,000 cfu/mL to 100,000 cfu/mL)) | Grade code B. subtilis (Bacillus subtilis; 0.5%, 3 days incubation): 4 (1001 to 10,000 colonies (thus 10,000 cfu/mL to 100,000 cfu/mL)) | Grade code B. subtilis (Bacillus subtilis; 0.5%, 14 days incubation): 4 (1001 to 10,000 colonies (thus 10,000 cfu/mL to 100,000 cfu/mL)) | Grade code B. subtilis (Bacillus subtilis; 0.5%, 30 days incubation): 4 (1001 to 10,000 colonies (thus 10,000 cfu/mL to 100,000 cfu/mL)) | Grade code B. subtilis (Bacillus subtilis; 1.25%, 3 days incubation): 4 (1001 to 10,000 colonies (thus 10,000 cfu/mL to 100,000 cfu/mL)) | Grade code B. subtilis (Bacillus subtilis; 1.25%, 14 days incubation): 4 (1001 to 10,000 colonies (thus 10,000 cfu/mL to 100,000 cfu/mL)) | Grade code B. subtilis (Bacillus subtilis; 1.25%, 30 days incubation): 4 (1001 to 10,000 colonies (thus 10,000 cfu/mL to 100,000 cfu/mL)) | Grade code B. subtilis (Bacillus subtilis; 2.5%, 3 days incubation): 4 (1001 to 10,000 colonies (thus 10,000 cfu/mL to 100,000 cfu/mL)) | Grade code B. subtilis (Bacillus subtilis; 2.5%, 14 days incubation): 4 (1001 to 10,000 colonies (thus 10,000 cfu/mL to 100,000 cfu/mL)) | Grade code B. subtilis (Bacillus subtilis; 2.5%, 30 days incubation): 4 (1001 to 10,000 colonies (thus 10,000 cfu/mL to 100,000 cfu/mL)) | Grade code Aeromonas sp (Aeromonas sp.; 0.5%, 3 days incubation): 5 (More than 10,000 colonies estimated (thus >100,000 cfu/mL)) | Grade code Aeromonas sp (Aeromonas sp.; 0.5%, 14 days incubation): 4 (1001 to 10,000 colonies (thus 10,000 cfu/mL to 100,000 cfu/mL)) | Grade code Aeromonas sp (Aeromonas sp.; 0.5%, 30 days incubation): 4 (1001 to 10,000 colonies (thus 10,000 cfu/mL to 100,000 cfu/mL)) | Grade code Aeromonas sp (Aeromonas sp.; 1.25%, 3 days incubation): 4 (1001 to 10,000 colonies (thus 10,000 cfu/mL to 100,000 cfu/mL)) | Grade code Aeromonas sp (Aeromonas sp.; 1.25%, 14 days incubation): 4 (1001 to 10,000 colonies (thus 10,000 cfu/mL to 100,000 cfu/mL)) | Grade code Aeromonas sp (Aeromonas sp.; 1.25%, 30 days incubation): 4 (1001 to 10,000 colonies (thus 10,000 cfu/mL to 100,000 cfu/mL)) | Grade code Aeromonas sp (Aeromonas sp.; 2.5%, 3 days incubation): 4 (1001 to 10,000 colonies (thus 10,000 cfu/mL to 100,000 cfu/mL)) | Grade code Aeromonas sp (Aeromonas sp.; 2.5%, 14 days incubation): 2 (52 to 100 colonies counted (thus 520 to 1000 cfu/mL)) | Grade code Aeromonas sp (Aeromonas sp.; 2.5%, 30 days incubation): 3 (101 to 1000 colonies (thus 1000 to 10,000 cfu/mL)) | Grade code S. epidermidis ([1]; 0.5%, 3 days incubation): 4 (1001 to 10,000 colonies (thus 10,000 cfu/mL to 100,000 cfu/mL)) | Grade code S. epidermidis ([1]; 0.5%, 13 days incubation): 4 (1001 to 10,000 colonies (thus 10,000 cfu/mL to 100,000 cfu/mL)) | Grade code S. epidermidis ([1]; 0.5%, 30 days incubation): 4 (1001 to 10,000 colonies (thus 10,000 cfu/mL to 100,000 cfu/mL)) | Grade code S. epidermidis ([1]; 1.25%, 3 days incubation): 2 (52 to 100 colonies counted (thus 520 to 1000 cfu/mL)) | Grade code S. epidermidis ([1]; 1.25%, 13 days incubation): 3 (101 to 1000 colonies (thus 1000 to 10,000 cfu/mL)) | Grade code S. epidermidis ([1]; 1.25%, 30 days incubation): 4 (1001 to 10,000 colonies (thus 10,000 cfu/mL to 100,000 cfu/mL)) | Grade code S. epidermidis ([1]; 2.5%, 3 days incubation): 2 (52 to 100 colonies counted (thus 520 to 1000 cfu/mL)) | Grade code S. epidermidis ([1]; 2.5%, 13 days incubation): 2 (52 to 100 colonies counted (thus 520 to 1000 cfu/mL)) | Grade code S. epidermidis ([1]; 2.5%, 30 days incubation): 2 (52 to 100 colonies counted (thus 520 to 1000 cfu/mL)) | Grade code B. cepacia (Burkholderia cepacia; 0.5%, 3 days incubation): 4 (1001 to 10,000 colonies (thus 10,000 cfu/mL to 100,000 cfu/mL)) | Grade code B. cepacia (Burkholderia cepacia; 0.5%, 14 days incubation): 4 (1001 to 10,000 colonies (thus 10,000 cfu/mL to 100,000 cfu/mL)) | Grade code B. cepacia (Burkholderia cepacia; 0.5%, 30 days incubation): 4 (1001 to 10,000 colonies (thus 10,000 cfu/mL to 100,000 cfu/mL)) | Grade code B. cepacia (Burkholderia cepacia; 1.25%, 3 days incubation): 3 (101 to 1000 colonies (thus 1000 to 10,000 cfu/mL))
